Experimental data: patent US11771709B2, “ALK protein degradation agent and anti-tumor application thereof” (ShanghaiTech University, priority 2017, dated 2023)
Read-outs that look alike come from different tables or passages of the source.

Legend:
[1] = tested on: SR (NPM-ALK) cells; test: Growth inhibition IC50 in ALCL SR cells (CCK8/WST, 72 hours); format: cell-based; settings: SR cells, WST
Experimental: (§2) SR (NPM-ALK) and NCI-H2228 (EML4-ALK, V3) cells were purchased from ATCC. […] All Cells were cultured in RPMI1640 medium with 10% FBS and Penicillin-Streptomycin in 37° C. incubator with 5% CO2.
(§3) Cells were seeded at specific density in 96 well plates one day before treatment. […] Viable cells were measured via CCK8 reagent and IC50s were calculated via Prism Graphad. Experiments were repeated at least three times.

[2] = molecular target: T1, ALK protein in H3122 (EML4-ALK) cells (Homo sapiens, UniProt Q9UM73); test: Western blot of ALK protein level (degradation, DC50), ALK phosphorylation and downstream signaling in H3122 cells; format: cell-based; settings: for ALK protein level / degradation: H3122 cells, western blot, up to 500 nM; for DC50: ALK protein degradation in H3122 cells
T1 construct: EML4 (Echinoderm microtubule-associated protein-like 4, Q9HC35) fusion partner, variant 1; host or cells: NCI-H3122 lung adenocarcinoma cells; the other entry of the earlier key: EML4 (Q9HC35, Echinoderm microtubule-associated protein-like 4)

[3] = molecular target: T2, ALK protein in H3122 cells (Homo sapiens, UniProt Q9UM73); test: ALK protein stability after stopping translation with cycloheximide in H3122 cells; format: cell-based; settings: 0.5 uM compound, 1 ug/ml cycloheximide, 12 hours (Ceritinib), 7 hours (SIAIS074017)
T2 construct: EML4 (Echinoderm microtubule-associated protein-like 4, Q9HC35) fusion partner, variant 1; host or cells: NCI-H3122 lung adenocarcinoma cells; the other entry of the earlier key: EML4 (Q9HC35, Echinoderm microtubule-associated protein-like 4)
Experimental: The mechanism of PROTAD compound to degrade its target protein acts through recruiting E3 ubiquitining ligase to the proximity of its target protein, which leads to the target protein being highly ubiquitinzed and eventually being degraded. In order to see the mechanism of ALK PROTAD compounds we developed, we firstly examined the half-life of ALK protein. Because the total level of ALK protein was determined by both the translational activity and protein degradation, we used cyclohexmide to stop protein translation to examine the effect of ALK PROTAD compounds on ALK protein stabilities.
We listed data for Ceritinib-based ALK PROTAD compounds here as an example, and data for other ALK PROTAD compounds were tested in the same way and similar results were found. […] The difference at the total ALK protein level will reflect the different influence of drugs on protein stability.

[4] = tested on: ALK positive non-small cell lung cancer; settings: second line treatment (Shaw et al., 2017); cited from earlier work
[5] = tested on: NCI-H3122 (EML4-ALK, V1) cells; test: Growth inhibition IC50 in lung cancer H3122 cells (Cell Titer Blue / Cell Titer Glo)
Experimental: as §2, §3

[6] = tested on: NCI-H2228 (EML4-ALK, V3) cells; test: Growth inhibition IC50 in lung adenocarcinoma H2228 cells (WST); format: cell-based; settings: Homo sapiens, WST (Table 3)
Source text: Experiments were repeated at least three times.
Besides above, we also tested the dosage-dependent effects on the growth inhibition in H2228 cells. […] (Table 3).

[7] = molecular target: T3, Ba/F3 (EML4-ALK/WT) (Homo sapiens, UniProt Q9UM73); test: Growth inhibition IC50 in Ba/F3 cells expressing EML4-ALK wild type; format: cell-based
T3 construct: Q9HC35 (Echinoderm microtubule-associated protein-like 4)
Experimental: as §3

[8] = molecular target: T4, Ba/F3 (EML4-ALK/L1196M) (Homo sapiens, UniProt Q9UM73, L1196M, cells depend on it); test: Growth inhibition IC50 in Ba/F3 cells expressing EML4-ALK L1196M; format: cell-based
T4 construct: Q9HC35 (Echinoderm microtubule-associated protein-like 4)
Experimental: as §3

[9] = molecular target: T5, Ba/F3 (EML4-ALK/C1156Y) (Homo sapiens, UniProt Q9UM73, C1156Y, cells depend on it); test: Growth inhibition IC50 in Ba/F3 cells expressing EML4-ALK C1156Y; format: cell-based
T5 construct: Q9HC35 (Echinoderm microtubule-associated protein-like 4)
Experimental: as §3

[10] = tested on: PC9 (EGFR, exon 19 del) cells; test: Growth inhibition IC50 in EGFR mutant lung adenocarcinoma PC9 cells; format: cell-based; settings: Homo sapiens, PC-9; PC9 cells, CTB, n ≥ 3; read-out: Half Inhibitory Concentration (IC50) Mean
Experimental: as §2, §3

[11] = tested on: PC9Brc1 (EGFR, exon 19 del+T790M) cells; test: Growth inhibition IC50 in EGFR mutant lung cancer PC9Brc1 cells; format: cell-based; settings: CTB, n ≥ 3, read-out: Half Inhibitory Concentration (IC50) Mean
Experimental: as §2, §3

[12] = tested on: SW48 cell line (EGFR G719S); test: Growth inhibition IC50 in EGFR G719S colorectal cancer cell line SW48; format: cell-based; settings: Homo sapiens, CTG, n = 2, read-out: Half Inhibitory Concentration (IC50) Mean
Experimental: as §3

[13] = tested on: U118MG cells (FIG-ROS1 gene fusion); test: Growth inhibition IC50 in ROS1 mutant glioblastoma cell line U118MG (72 hours); format: cell-based; settings: Homo sapiens, U-118-MG; U118MG cells, 72 hours, n = 2, reagent CTG; read-out: Half Inhibitory Concentration (IC50) Mean
[14] = tested on: MOLM13 cells (FLT3-ITD); test: Growth inhibition IC50 in FLT3-ITD AML cell line MOLM13; format: cell-based; settings: Homo sapiens, MOLM-13, MOLM13 cells
Experimental: as §3

[15] = molecular target: T6, ALK protein in SR (NPM-ALK) cells (Homo sapiens, UniProt Q9UM73); test: Western blot of ALK protein level (degradation, DC50), ALK phosphorylation and downstream signaling in SR cells; format: cell-based
T6 construct: NPM (nucleophosmin, NPM1, P06748) fusion partner; host or cells: SR (ALCL) cells; the other entry of the earlier key: NPM1 (P06748, Nucleophosmin)

[16] = tested on: ALK protein in H2228 (EML4-ALK) cells; test: Western blot of ALK protein level, ALK phosphorylation and downstream signaling in H2228 cells; format: cell-based
Experimental: Cancer cells were seeded in 1 ml RPMI1640 medium in 24-well plate at the density of 3×10^5 or 1.5×10^5 cells/ml. The next day cells were treated with different concentration of drugs for 16 hours. Then cells were washed twice with PBS and lyzed in RIPA lysis buffer with Halt Proteinase and Phosphotase inhibitor. Equal amount of proteins were loaded to run SDS-PAGE gels after denature. The gels were blotted to PVDF membrane. After incubating with first and secondary antibodies, the images were developed using SuperSignal West Pico Chemiluminescent Substrate.
The effect of Brigtinib based PROTAD molecules on the ALK protein total level were studied by western blot in ALCL SR (NPM-ALK) cell line and lung adenocarcinoma cell line H2228 and H3122 (EML4-ALK).
The effects of compounds SIAIS164008 and SIAIS164018 of the present invention on the activation of ALK mediated signaling pathways were also studied in SR cells and H2228 cells. […] The overall effect of compound of SIAIS164018 was better than that of SIAIS164008.

[17] = molecular target: T7, ALK protein in SR cells (Homo sapiens, UniProt Q9UM73); test: Block of ALK degradation by proteosome inhibitors MG132 and MLN4924 in SR cells; format: cell-based
T7 construct: NPM (nucleophosmin, NPM1, P06748) fusion partner; host or cells: SR (ALCL) cells; the other entry of the earlier key: NPM1 (P06748, Nucleophosmin)
Source text: To further validate the degradation effect act through proteosome mediated pathway, we also treated cells with two different proteosome inhibitors MG132 and MLN4924 to block protein degradation (FIG. 16).

[18] = tested on: H2228 cells (EML4-ALK); test: Colony formation assay in H2228 cells; format: cell-based; settings: about 2 weeks
Experimental: (§1) Cell were digested to become single cell suspension. Cells were seeded in the intensity of 250 cells/well in 12 well plate. Treated cells at the concentration of 100, 250, 500 nM. Fixed cells 2-3 weeks after and stained cells with crystyl violate.
In order to see the effect of ALK PROTAD compounds on the colony formation ability of cancer cells, EML4-ALK mutant lung cancer cells H2228 were firstly seeded in 12 well plate at the density of 200 cells per well. Cells were treated with different ALK PROTAD compounds at different concentration for about 2 weeks.

[19] = Pharmacokinetics (PK) study in SD rat (IV, IP, PO; LC-MS/MS); format: in vivo; settings: Sprague-Dawley, serum
Experimental: SD rat were used to study the PK of ALK PROTAD compounds. ALK PROTAD compounds SIAIS164008, SIAIS164018, SIAIS164023 and SIAIS151118 were administrated into SD rat via three different routes: IV (Intravenous Injection), IP (Intraperitoneal Injection) and PO ([…]). Blood samples at different sampling time points up to 24 hours post dosing were collected from each animal and analyzed with LC-MS/MS to calculate the PK for each chemical.

[20] = tested on: PC9Brc1 cells; test: Colony formation assay in PC9Brc1 cells; format: cell-based; settings: PC9 Brc1 cells
Experimental: as §1
ALK PROTAD compound SIAIS1210117 and its negative control epimer SIAIS219050 were used.

[21] = Ceritinib based ALK PROTAD compounds (Table 5)

Cc1cc(Nc2ncc(Cl)c(Nc3ccccc3S(=O)(=O)C(C)C)n2)c(OC(C)C)cc1C1CCNCC1 [Ceritinib, reference compound]
IC50 [1, 21]: 16 nM | ALK protein level / degradation [2]: did not affect ALK protein level | ALK protein level after stop of translation (protein stability) [3]: did not show much difference | increase of progression free survival comparing to second line chemotherapy [4]: about 4 months | IC50 ([5]; H3122 cells, CTB (Cell Titer Blue)): 14 nM | IC50 ([5]; H3122 cells, CTG (Cell Titer Glo)): 44 nM

Cc1cc(Nc2ncc(Cl)c(Nc3ccccc3S(=O)(=O)C(C)C)n2)c(OC(C)C)cc1C1CCN(C(=O)CCC(=O)N[C@H](C(=O)N2C[C@H](O)C[C@H]2C(=O)NCc2ccc(-c3scnc3C)cc2)C(C)(C)C)CC1 [SIAIS074017, (2S,4R)-1-((S)-2-(4-(4-(4-((5-chloro-4-((2-(isopropylsulfonyl)phenyl)amino)pyrimidin-2-yl)amino)-5-isopropoxy-2-methylphenyl)piperidin-1-yl)-4-oxobutanamido)-3,3-dimethylbutanoyl)-4-hydroxy-N-(4-(4-methylthiazol-5-yl)benzyl)pyrrolidine-2-carboxamide]
IC50 [1, 21]: 116 nM | DC50 [2]: 100 to 500 nM | ALK protein level after stop of translation (protein stability) [3]: significantly reduced ALK protein level | IC50 ([5]; Homo sapiens, NCI-H3122, H3122 cells, CTB (Cell Titer Blue)): 45 nM | IC50 ([5]; Homo sapiens, NCI-H3122, H3122 cells, CTG (Cell Titer Glo)): 41 nM

COc1cc(N2CCC(N3CCN(C(=O)CNc4cccc5c4C(=O)N(C4CCC(=O)NC4=O)C5=O)CC3)CC2)ccc1Nc1ncc(Cl)c(Nc2ccccc2P(C)(C)=O)n1 (stereo not shown) [SIAIS164018, 4-((2-(4-(1-(4-((5-chloro-4-((2-(dimethylphosphoryl)phenyl)amino)pyrimidin-2-yl)amino)-3-methoxyphenyl)piperidin-4-yl)piperazin-1-yl)-2-oxoethyl)amino)-2-(2,6-dioxopiperidin-3-yl)isoindoline-1,3-dione]
IC50 ([1]; 72 h, Brigatinib-based PROTAD molecules (Table 3)): 2 ± 1.4 nM | IC50 [6]: 17.9 nM | GI50 [7]: 30.9 nM | GI50 [8]: 57.4 nM | GI50 [9]: 42.7 nM | IC50 [10]: 150 nM | IC50 [11]: 900 nM | IC50 [12]: 2760 nM | IC50 [13]: 16900 nM | IC50 ([14]; n = 2, reagent CTG, read-out: Half Inhibitory Concentration (IC50) Mean): 79 nM | IC50 ([14]; read-out: IC50): 79 nM | DC50 ([15]; ALK protein degradation in SR cells): 0.5 to 1 nM | concentration at which ALK proteins were degraded ([15]; SR cells, western blot): less than 1 nM | concentration inhibiting the phosphorylation of ALK proteins ([15]; SR cells, western blot): 0.1 nM | downstream signaling pathway (PI3K/AKT, MEK/ERK and STAT3) ([15]; SR cells, western blot): significantly inhibited | ALK protein degradation ([15]; SR cells, western blot, 16 hours, up to 500 nM): effectively degrade ALK proteins at nano mole concentration | DC50 [2]: 1 to 10 nM | ALK protein level / degradation [2]: a similar effects was observed | phosphorylation of ALK protein and activation of PI3K/AKT pathway [16]: inhibited | reduction of ALK protein level and its block by MG132 and MLN4924 [17]: able to be blocked | colony formation [18]: dramatically inhibited | bioavailability ([19]; IP, 2 mg/kg): 157% | half-life ([19]; IP, 2 mg/kg, read-out: serum half-life (converted)): 3.65 h | Tmax ([19]; IP, 2 mg/kg, read-out: time to maximal serum peak level (Tmax)): ~2.67 h | clearance ([19]; IV, single dose 2 mg/kg, read-out: clearance rate, mean value): ~22.6 mL/min/kg | half-life ([19]; IV, single dose 2 mg/kg, read-out: serum clearance half-life (converted)): ~4.65 h | bioavailability ([19]; PO, 10 mg/kg): 18.4% | Tmax ([19]; PO, 10 mg/kg, read-out: Tmax): 2 h | half-life ([19]; PO, 10 mg/kg, read-out: serum half-life (converted)): 7.09 h

COc1cc(N2CCC(NC(=O)CCCCCCCCCC(=O)N[C@H](C(=O)N3C[C@@H](O)C[C@H]3C(=O)NCc3ccc(-c4scnc4C)cc3)C(C)(C)C)CC2)ccc1Nc1ncc(Cl)c(Nc2ccccc2P(C)(C)=O)n1 [SIAIS219050, N1-(1-(4-((5-chloro-4-((2-(dimethylphosphoryl)phenyl)amino)pyrimidin-2-yl)amino)-3-methoxyphenyl)piperidin-4-yl)-N11-((S)-1-((2S,4S)-4-hydroxy-2-((4-(4-methylthiazol-5-yl)benzyl)carbamoyl)pyrrolidin-1-yl)-3,3-dimethyl-1-oxobutan-2-yl)undecanediamide]
ALK protein degradation within a time course ([15]; SR cells, 100 nM, 4 hours (SIAIS1210117), up to 24 hours (epimer)): did not induce degradation of ALK protein | reduction of ALK protein level and its block by MG132 and MLN4924 [17]: did not have such effect | colony formation [20]: could not
